Reference: patent publication US7442383B2, “Use of xenon for the control of neurological deficits associated with cardiopulmonary bypass” (Protexeon Limited, priority 2002, dated 2008)

Columns and labels:
[1] = test system: rat CPB model; assay: Standardized functional neurologic (neuromotor) testing after CPB; format: in vivo; details: for neurologic outcome, difference among groups: 12th postoperative day
Text: The methodology of the CPB model used in the current study has been previously reported (Anesthesiology 2001, 95:1485-91). Briefly, anesthesia was induced in male Sprague-Dawley rats (12-14 weeks, 350-380 gm; Harlan, Indianapolis, Ind.) with 5% isoflurane in oxygen-enriched air in a plastic box. Following orotracheal intubation with a 14-gauge cannula, the lungs were mechanically ventilated (40% O2/balance N2) to maintain a PaCO2 of 36-42 mmHg. During surgical preparation, anesthesia was maintained with 2.0-2.5% isoflurane and the rectal and pericranial temperatures were monitored and servo-controlled at 37.5±0.1° C. (YSI 400 series thermistor and 73ATA Indicating controller; YSI, Yellow Springs, Ohio) with a heating blanket and convective forced-air heating system. The superficial caudal epigastric artery, a branch of a femoral artery, was cannulated with PE-10 tubing for monitoring mean arterial pressure (MAP). During cardiopulmonary bypass (CPB) rats were anesthetized with fentanyl (30 μg/kg, i.v.), midazolam (0.4 mg/kg, i.v.) and atracurium (0.5 mg/kg, i.v.) as a bolus of injection and followed by a continuous infusion of the mixture of three with a syringe pump (2.5 μg/kg/min for fentanyl, 0.03 mg/kg/min for midazolam and 0.08 mg/kg/min for atracurium). Pilot studies had been confirmed that with this anesthetic regimen, the animals had enough depth of anesthesia during CPB.
The CPB circuit (FIG. 2) consisted of a venous reservoir, a peristaltic pump and a membrane oxygenator, all of which were connected via 1.6 mm internal diameter silicone tubing (Tygon®; Cole-Parmer Instrument Co., Vernon Hills, Ill.). The CPB circuit was primed with approximately 40 ml of whole blood obtained prior to the start of the experiment from two heparinized (100IU/rat, i.v.) donor rats (275-320 gm) which were exsanguinated under isoflurane anesthesia. The drained blood traversed a warmed venous reservoir (jacketed with circulating water from a heat pump) to a peristaltic pump (Masterflex®; Cole-Parmer Instrument Co., Vernon Hills, Ill.) to a membrane oxygenator (a modified Cobe Micro® neonatal oxygenator with a surface area of 0.33 m^2; Cobe Cardiovascular, Inc., Arvada, Colo.). A closed-circuit gas delivery system fed the appropriate gas into the oxygenator after which blood was inflsed back into the rat. An in-line flow probe (2N806 flow probe and T208 volume flowmeter; Transonics Systems, Inc., Ithaca, N.Y.) was used to continuously measure CPB flow. Arterial line inflow temperature was maintained at 37.5° C. using a circulating water bath system. The venous oxygen saturation from the venous return line was measured continuously using an Oximetrix® Monitor and Opticath® Catheter (Abbot Laboratories, North Chicago, Ill.). Arterial blood gases were performed using a IL 1306 blood gas analyzer (Instrument Laboratories, Inc., Lexington, Mass.) with hemoglobin determined using an OSM3 Hemoximeter® (Radiometer Inc., Copenhagen, Denmark).
After complete of all surgical procedures as described as above, rats were randomly divided into one of four groups. […] CPB group: rats (n=10) were subjected to 60 min of non-pulsatile CPB with a membrane oxygenator receiving a mixture of 30% O2 and 65% N2. CPB+MK801 group: rats (n=10) received MK801 (0.15 mg/kg, i.v.) 15 min prior to 60 min of CPB with similar concentrations of gases as in group 2. The dose of MK801 was chosen from pilot studies, in which its side effect can be kept at minmal level. CPB+Xenon group: rats (n=10) underwent 60 min of CPB with a membrane oxygenator receiving a mixture of 30% O2 and 60% xenon. […]

[2] = test system: rat CPB model; assay: Morris water maze neurocognitive testing after CPB; format: in vivo; details: 10 postoperative days; speeds 4.7 to 6.2 inch/sec
Text: The methodology of the CPB model used in the current study has been previously reported (Anesthesiology 2001, 95:1485-91). Briefly, anesthesia was induced in male Sprague-Dawley rats (12-14 weeks, 350-380 gm; Harlan, Indianapolis, Ind.) with 5% isoflurane in oxygen-enriched air in a plastic box. Following orotracheal intubation with a 14-gauge cannula, the lungs were mechanically ventilated (40% O2/balance N2) to maintain a PaCO2 of 36-42 mmHg. During surgical preparation, anesthesia was maintained with 2.0-2.5% isoflurane and the rectal and pericranial temperatures were monitored and servo-controlled at 37.5±0.1° C. (YSI 400 series thermistor and 73ATA Indicating controller; YSI, Yellow Springs, Ohio) with a heating blanket and convective forced-air heating system. […]
The CPB circuit (FIG. 2) consisted of a venous reservoir, a peristaltic pump and a membrane oxygenator, all of which were connected via 1.6 mm internal diameter silicone tubing (Tygon®; Cole-Parmer Instrument Co., Vernon Hills, Ill.). […] The venous oxygen saturation from the venous return line was measured continuously using an Oximetrix® Monitor and Opticath® Catheter (Abbot Laboratories, North Chicago, Ill.). Arterial blood gases were performed using a IL 1306 blood gas analyzer (Instrument Laboratories, Inc., Lexington, Mass.) with hemoglobin determined using an OSM3 Hemoximeter® (Radiometer Inc., Copenhagen, Denmark). […]

[3] = test system: rat CPB model; assay: General behavioural changes after emergence from anesthesia; format: in vivo; details: MK801 0.15 mg/kg i.v.
Protocol: After complete of all surgical procedures as described as above, rats were randomly divided into one of four groups. […] CPB group: rats (n=10) were subjected to 60 min of non-pulsatile CPB with a membrane oxygenator receiving a mixture of 30% O2 and 65% N2. CPB+MK801 group: rats (n=10) received MK801 (0.15 mg/kg, i.v.) 15 min prior to 60 min of CPB with similar concentrations of gases as in group 2. The dose of MK801 was chosen from pilot studies, in which its side effect can be kept at minmal level. CPB+Xenon group: rats (n=10) underwent 60 min of CPB with a membrane oxygenator receiving a mixture of 30% O2 and 60% xenon.
All animals were able to drink and to eat after emergence.

[4] = test system: mouse neuronal/glial co-culture; assay: LDH release from neuronal/glial co-culture, temperature variation study; format: cell-based; details: xenon concentration (% atm)
Protocol: The effects of xenon as a neuroprotectant were investigated at normal body temperature (37° C.) and at a lower temperature (33° C.), for example, as may pertain during CPB. The study was based on measuring LDH release from a mouse neuronal/glial co-culture in accordance with the method described in WO 01/08692 (in the name of Imperial College of Science, Technology and Medicine).

[5] = 1st postoperative day, CPB group 5.2±1.5, sham 7.6±0.8
[6] = 3rd postoperative day, CPB group 5.8±1.8, sham 8.3±0.7

Row | Compound | neurologic outcome (functional neurologic score, zero to nine scale, best score=9) [1, 5] | neurologic outcome (functional neurologic score, zero to nine scale, best score=9) [1, 6] | neurologic outcome, difference among groups [1] | swimming speeds, difference among groups [2] | duration of behavioural disturbances [3] [h] | general behavioural changes [3] | EC50 for reduction of LDH release ([4]; 33° C.) | EC50 for reduction of LDH release ([4]; 37° C.)
1 | C[C@]12N[C@H](Cc3ccccc31)c1ccccc12 [MK801] | 6.2±1.4 | 7.4±1.8 | no difference | no significant differences | 1 to 2 | hyperactivity, head weaving and related disturbances of motor coordination |  | 
2 | [Xe] [xenon] | 8.3±0.5 | 8.9±0.2 | no difference | no significant differences |  |  | 11.5+/−2.0% | 35.9+/−2.2%
